{"source": "patent US8053444B2", "about": "(Lek Pharmaceuticals d.d., priority 2007, dated 2011)", "key": {"[1]": {"test": "Stress stability testing in vials, sirolimus impurities by HPLC", "type": "physicochemical", "parameters": "Total sum of impurities / Max.unknown impurity: unit not given here", "method": "The origination of a solid solution of sirolimus was checked by X-ray diffraction analysis and Raman microscopy. […] These were exposed then to stress stability testing at 60° C. for 14 days and at 40° C. and 75% relative humidity for one month in vials. The amount of degradation products formed was compared to the samples of commercially available tablets comprising sirolimus.\nThe HPLC analyses were performed with a Waters system equipped with a Synergi Max-RP, 5 μm, 250×4.6 mm column which was maintained in a column oven at 40° C. The mobile phase consisted of a 40:54:6 (V/V/V) mixture of CF3COOH/NaOH with pH 2.5, acetonitrile and water. The flow rate was 1.4 mL/min, and the detection wavelength was 278 nm.\nFor the stability studies, two solid solutions were prepared using ethanol-soluble polymers polyvinylpyrrolidone (PVP) or hydroxypropylcellulose (HPC). The chemical stability was monitored for 14 days at 60° C. and 1 month at 40° C. and 75% relative humidity. The samples were stored in vials."}, "[2]": {"test": "Stress stability testing in vials, sirolimus impurities by HPLC", "type": "physicochemical", "parameters": "unit not given here", "conditions": "7 days, 60° C."}, "[3]": {"test": "Solubility of sirolimus in water", "conditions": "volume of 250 ml of gastrointestinal fluid"}, "[4]": {"conditions": "1 month, 40° C./75% relative humidity, in vials"}}}
{"smiles": "CO[C@H]1C[C@@H]2CC[C@@H](C)[C@@](O)(O2)C(=O)C(=O)N2CCCC[C@H]2C(=O)O[C@H]([C@H](C)C[C@@H]2CC[C@@H](O)[C@H](OC)C2)CC(=O)[C@H](C)/C=C(\\C)[C@@H](O)[C@@H](OC)C(=O)[C@H](C)C[C@H](C)/C=C/C=C/C=C/1C", "note": "[Substance in a crystal form, sirolimus]", "values": [{"measurement": "Max.unknown impurity", "setting": "[1]; [4]", "value": 0.26}, {"measurement": "Total sum of impurities", "setting": "[1]; [4]", "value": 0.59}, {"measurement": "Max.unknown impurity", "setting": "[1]; 14 days, 60° C., in vials", "value": 0.26}, {"measurement": "Total sum of impurities", "setting": "[1]; 14 days, 60° C., in vials", "value": 0.60}, {"measurement": "Max.unknown impurity", "setting": "[1]; time of testing 0", "value": 0.19}, {"measurement": "Total sum of impurities", "setting": "[1]; time of testing 0", "value": 0.70}]}
{"smiles": "CO[C@H]1C[C@@H]2CC[C@@H](C)[C@@](O)(O2)C(=O)C(=O)N2CCCC[C@H]2C(=O)O[C@H]([C@H](C)C[C@@H]2CC[C@@H](O)[C@H](OC)C2)CC(=O)[C@H](C)/C=C(\\C)[C@@H](O)[C@@H](OC)C(=O)[C@H](C)C[C@H](C)/C=C/C=C/C=C/1C", "note": "[Example 1, sirolimus]", "values": [{"measurement": "chemical stability of sirolimus, comparison in words", "setting": "[1]; stress stability testing, comparison between samples of Table 3", "value": "significantly less stable"}, {"measurement": "Max.unknown impurity", "setting": "[1]; time of testing 0", "value": 0.25}, {"measurement": "Total sum of impurities", "setting": "[1]; time of testing 0", "value": 3.34}, {"measurement": "Max.unknown impurity", "setting": "[2]", "value": 1.91}, {"measurement": "Total sum of impurities", "setting": "[2]", "value": 9.09}]}
{"smiles": "CO[C@H]1C[C@@H]2CC[C@@H](C)[C@@](O)(O2)C(=O)C(=O)N2CCCC[C@H]2C(=O)O[C@H]([C@H](C)C[C@@H]2CC[C@@H](O)[C@H](OC)C2)CC(=O)[C@H](C)/C=C(\\C)[C@@H](O)[C@@H](OC)C(=O)[C@H](C)C[C@H](C)/C=C/C=C/C=C/1C", "note": "[Sirolimus, (3S,6R,7E,9R,10R,12R,14S,15E,17E,19E,21S,23S,26R,27R,34aS)-9,10,12,13, -14,21,22,23,24,25,26,27,32,33,34,34a-hexadecahydro-9,27-dihydroxy-3-[(1R)-2-[(1S,3R,4R)-4-hydroxy-3-methoxycyclohexyl]-1-methylethyl]-10,21-dimethox-y-6,8,12,14,20,26-hexamethyl-23,27-epoxy-3H-pyrido[2,1-c][1,4]oxaazacycloh-entriacontine-1,5,11,28,29(4H,6H,31H)-pentone]", "values": [{"measurement": "amount of sirolimus dissolved in gastrointestinal fluid", "setting": "[3]", "value": "about 0.65 mg"}]}
